Legend:
human IDO1 = target: T1, human IDO1 (Homo sapiens, UniProt P14902); assay: IDO inhibition assay in HEK293 cells stably expressing human IDO1 (kynurenine, Ehrlich reagent); type: cell-based; details: 20 hours incubation, absorbance at 490 nm, read-out: IDO1 HEK Human IC50
T1 construct: expressed in transfected cells
Method: HEK293 cells were transfected with a pCDNA-based mammalian expression vector harboring human IDO1 cDNA (NM 002164.2) by electroporation. They were cultured in medium (DMEM with 10% FBS) containing 1 mg/ml G418 for two weeks. Clones of HEK293 cells that stably expressed human IDO1 protein were selected and expanded for IDO inhibition assay.
The human IDO1/HEK293 cells were seeded at 10,000 cells per 50 μL per well with RPMI/phenol red free media contains 10% FBS in a 384-well black wall clear bottom tissue culture plate (Matrix Technologies LLC) 100 nL of certain concentration of compound was then added to each well using ECHO liquid handling systems. The cells were incubated for 20 hours in 37° C. incubator with 5% CO2.
The compound treatments were stopped by adding trichloroacetic acid (Sigma-Aldrich) to a final concentration at 0.2%. The cell plate was further incubated at 50° C. for 30 minute. The equal volume supernatant (20 μL) and 0.2% (w/v) Ehrlich reagent (4-dimethylaminobenzaldehyde, Sigma-Aldrich) in glacial acetic acid were mixed in a new clear bottom 384-well plate. This plate was then incubated at room temperature for 30 minute. The absorbance at 490 nm was measured on Envision plate reader.
Compound IC50 values were calculated using the counts of 500 nM of a reference standard treatment as one hundred percent inhibition, and counts of no compound but DMSO treatment as zero percent inhibition.

[1] = target: T2, indoleamine 2,3-dioxygenase (IDO) (Homo sapiens, UniProt P14902); assay: HeLa cell-based indoleamine 2,3-dioxygenase (IDO) assay (kynurenine production); details: HeLa cells, IFNγ 25 ng/mL, 48 hour incubation, absorbance at 480 nm
T2 construct: host or cells: HeLa cells stimulated with IFNγ (25 ng/mL)
T2 sequence (P14902 whole entry): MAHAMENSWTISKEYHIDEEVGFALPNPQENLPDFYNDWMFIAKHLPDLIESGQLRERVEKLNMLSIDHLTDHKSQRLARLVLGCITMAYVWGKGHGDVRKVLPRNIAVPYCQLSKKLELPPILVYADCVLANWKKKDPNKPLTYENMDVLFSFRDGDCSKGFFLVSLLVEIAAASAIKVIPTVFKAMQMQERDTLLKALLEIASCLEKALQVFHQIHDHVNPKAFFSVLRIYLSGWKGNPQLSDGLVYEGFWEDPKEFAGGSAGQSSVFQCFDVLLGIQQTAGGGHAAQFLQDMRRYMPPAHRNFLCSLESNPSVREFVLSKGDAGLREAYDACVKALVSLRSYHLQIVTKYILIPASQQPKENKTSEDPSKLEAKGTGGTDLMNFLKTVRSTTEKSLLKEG
Method: Assessment of inhibitor activity in HeLa cell-based indoleamine 2,3-dioxygenase (IDO) assay:
HeLa (ATCC® CCL-2) cells were obtained from the ATCC® and cultured in Dulbecco's Modified Eagle Medium supplemented with 4.5 g/L glucose, […] (#10-013-CV, Corning), 2 mM L-alanyl-L-glutamine dipeptide (#35050-061, Gibco), 100U/mL penicillin, 100 μg/mL streptomycin (#SV30010, HyClone) and 10% fetal bovine serum (#SH30071.03 HyClone). Cells were maintained in a humidified incubator at 37° C. in 5% CO2.
IDO activity was assessed as a function of kynurenine production as follows: HeLa cells were seeded in a 96-well culture plate at a density of 5,000 cells/well and allowed to equilibrate overnight. After 24 hours, the media was aspirated and replaced with media containing IFNγ (#285-IF/CF, R&D Systems) at a final concentration of 25 ng/mL. A serial dilution of each test compound was added to the cells in a total volume of 200 μL of culture medium. After a further 48 hour incubation, 170 μL of supernatant was transferred from each well to a fresh 96-well plate. 12.1 μL of 6.1N trichloroacetic acid (#T0699, Sigma-Aldrich) was added to each well and mixed, followed by incubation at 65° C. for 20 minutes to hydrolyze N-formylkynurenine, the product of indoleamine 2,3-dioxygenase, to kynurenine. The reaction mixture was then centrifuged for 10 mins at 500×g to sediment the precipitate. 100 μL of the supernatant was transferred from each well to afresh 96-well plate. 100 μl of 2% (w/v) p-dimethylaminobenzaldehyde (#15647-7, Sigma-Aldrich) in acetic acid (#A6283, Sigma-Aldrich) was added to each well mixed and incubated at room temperature for 20 mins. Kynurenine concentrations were determined by measuring absorbance at 480 nm and calibrating against an L-kynurenine (#K8625, Sigma-Aldrich) standard curve using a SPECTRAMAX® M2e microplate reader (Molecular Devices). The percentage activity at each inhibitor concentration was determined and IC50 values assessed using nonlinear regression.

T1 sequence (P14902 whole entry): as above

| Molecule | IC50 (human IDO1) [nM] | IC50 [1] [nM] |
| --- | --- | --- |
| CCC(c1nc2ccc(Cl)cc2[nH]1)[C@H]1CC[C@H](Oc2ccnc3ccccc23)CC1 (mixture of isomers) [Example 13, 4-(((trans)-4-(1-(6-chloro-1H-benzo[d]imidazol-2-yl)propyl)cyclohexyl)oxy)quinoline] | 3.4 |  |
| C[C@@H](c1nc2ccccc2[nH]1)[C@H]1CC[C@@H](c2ccnc3ccc(F)cc32)CC1 [Example 1, 4-((cis)-4-((R)-1-(1H-benzo[d]imidazol-2-yl)ethyl)cyclohexyl)-6-fluoroquinoline] | 5.2 | 4.7 |
| C[C@@H](c1nc2ccc(Cl)cc2[nH]1)[C@H]1CC[C@@H](c2ccnc3ccc(F)cc32)CC1 [Example 2, 4-((cis)-4-((R)-1-(6-chloro-1H-benzo[d]imidazol-2-yl)ethyl)cyclohexyl)-6-fluoroquinoline] | 1.8 | 1.1 |
| C[C@@H](c1nc2ccc(F)cc2[nH]1)[C@H]1CC[C@@H](c2ccnc3ccc(F)cc32)CC1 [Example 3, 6-fluoro-4-((cis)-4-((R)-1-(6-fluoro-1H-benzo[d]imidazol-2-yl)ethyl)cyclohexyl)quinoline] | 2.7 | 1.5 |
| C[C@@H](c1nc2cc3c(cc2[nH]1)OCO3)[C@H]1CC[C@@H](c2ccnc3ccc(F)cc32)CC1 [Example 4, 6-((R)-1-((cis)-4-(6-fluoroquinolin-4-yl)cyclohexyl)ethyl)-5H-[1,3]dioxolo[4′,5′:4,5]benzo[1,2-d]imidazole] | 1.5 |  |
| C[C@@H](c1nc2cnccc2[nH]1)[C@H]1CC[C@@H](c2ccnc3ccc(F)cc32)CC1 [Example 5, 4-((cis)-4-((R)-1-(1H-imidazo[4,5-c]pyridin-2-yl)ethyl)cyclohexyl)-6-fluoroquinoline] | 105 |  |
| C[C@@H](c1nc2ncc(Cl)cc2[nH]1)[C@H]1CC[C@@H](c2ccnc3ccc(F)cc32)CC1 [Example 6, 4-((cis)-4-((R)-1-(6-chloro-1H-imidazo[4,5-b]pyridin-2-yl)ethyl)cyclohexyl)-6-fluoroquinoline] | 7 | 4.5 |
| C[C@@H](c1nc2ncccc2[nH]1)[C@H]1CC[C@@H](c2ccnc3ccc(F)cc32)CC1 [Example 7, 4-((cis)-4-((R)-1-(1H-imidazo[4,5-b]pyridin-2-yl)ethyl)cyclohexyl)-6-fluoroquinoline] | 23.2 | 30.1 |
| C[C@@H](Nc1nc2ccc(Cl)cc2s1)[C@H]1CC[C@@H](c2ccnc3ccc(F)cc32)CC1 [Example 8, 6-chloro-N—((R)-1-((cis)-4-(6-fluoroquinolin-4-yl)cyclohexyl)ethyl)benzo[d]thiazol-2-amine] | 730 |  |
| COc1ccc2nc(N[C@H](C)[C@H]3CC[C@@H](c4ccnc5ccc(F)cc54)CC3)[nH]c2c1 [Example 9, N-((R)-1-((cis)-4-(6-fluoroquinolin-4-yl)cyclohexyl)ethyl)-6-methoxy-1H-benzo[d]imidazol-2-amine] | 263 |  |
| C[C@@H](Nc1nc2ccccc2s1)[C@H]1CC[C@@H](c2ccnc3ccc(F)cc32)CC1 [Example 10] | 194 |  |
| C[C@@H](Nc1nc2ccccc2[nH]1)[C@H]1CC[C@@H](c2ccnc3ccc(F)cc32)CC1 [Example 12, N-((R)-1-((cis)-4-(6-fluoroquinolin-4-yl)cyclohexyl)ethyl)-1H-benzo[d]imidazol-2-amine] | 139 |  |
| CCC(c1nc2ccc(Cl)cc2[nH]1)[C@H]1CC[C@@H](Oc2ccnc3ccccc23)CC1 (stereo partly drawn) [Example 14, 4-(((cis)-4-(1-(6-chloro-1H-benzo[d]imidazol-2-yl)propyl)cyclohexyl)oxy)quinoline] | 322 |  |
| COC(=O)c1ccc2[nH]c([C@H](C)[C@H]3CC[C@@H](c4ccnc5ccc(F)cc54)CC3)nc2c1 [Example 50, methyl 2-((R)-1-((1s,4S)-4-(6-fluoroquinolin-4-yl)cyclohexyl)ethyl)-1H-benzo[d]imidazole-5-carboxylate] |  | 2.1 |
| CCC(c1nc2ccc(Cl)cc2[nH]1)[C@H]1CC[C@@H](Oc2ccnc3ccccc23)CC1 (stereo partly drawn) [Example 51, 4-(((1s,4s)-4-(1-(6-chloro-1H-benzo[d]imidazol-2-yl)propyl)cyclohexyl)oxy)quinoline] | 1060 |  |
| CCC(c1nc2ccc(Cl)cc2[nH]1)[C@H]1CC[C@@H](Oc2ccnc3ccccc23)CC1 (stereo partly drawn) [Example 52, 4-(((1s,4s)-4-(1-(6-chloro-1H-benzo[d]imidazol-2-yl)propyl)cyclohexyl)oxy)quinoline] | 697 |  |
| (+/−)-Cis and trans-6-chloro-2-(1-(4-(2-(trifluoromethyl)pyridin-4-yl)cyclohexyl)propyl)-1H-benzo[d]imidazole [Example 36] | 26.1 |  |
| (±)-Cis and trans-6-chloro-2-(1-(4-(2-(trifluoromethyl)pyridin-4-yl)cyclohexyl)ethyl)-1H-benzo[d]imidazole [Example 38] | 62.1 |  |

Results, then the molecule that gave them:

| IC50 (human IDO1) [nM] | IC50 [1] [nM] | Molecule |
| --- | --- | --- |
| 4.1 | 5.7 | CCC(c1nc2ccc(Cl)cc2[nH]1)[C@H]1CC[C@H](Oc2ccnc3ccccc23)CC1 (single isomer, unassigned) [Example 13-1, 4-(((trans)-4-(1-(6-chloro-1H-benzo[d]imidazol-2-yl)propyl)cyclohexyl)oxy)quinoline] |
| 3.4 | 8.9 | CCC(c1nc2ccc(Cl)cc2[nH]1)[C@H]1CC[C@H](Oc2ccnc3ccccc23)CC1 (single isomer, unassigned) [Example 13-2, 4-(((trans)-4-(1-(6-chloro-1H-benzo[d]imidazol-2-yl)propyl)cyclohexyl)oxy)quinoline] |
| 40.6 |  | CC[C@H](c1nc2ccc(Cl)cc2[nH]1)[C@H]1CC[C@@H](c2ccnc3ccc(F)cc32)CC1 (single isomer, unassigned) [Example 15-1, 4-(4-(1-(6-chloro-1H-benzo[d]imidazol-2-yl)propyl)cyclohexyl)-6-fluoroquinoline] |
| 110 |  | CC[C@H](c1nc2ccc(Cl)cc2[nH]1)[C@H]1CC[C@@H](c2ccnc3ccc(F)cc32)CC1 (single isomer, unassigned) [Example 15-2, 4-(4-(1-(6-chloro-1H-benzo[d]imidazol-2-yl)propyl)cyclohexyl)-6-fluoroquinoline] |
| 0.7 | 3.5 | CC[C@H](c1nc2ccc(Cl)cc2[nH]1)[C@H]1CC[C@@H](c2ccnc3ccc(F)cc32)CC1 (single isomer, unassigned) [Example 15-3, 4-(4-(1-(6-chloro-1H-benzo[d]imidazol-2-yl)propyl)cyclohexyl)-6-fluoroquinoline] |
| 6.6 | 9.5 | CC[C@H](c1nc2ccc(Cl)cc2[nH]1)[C@H]1CC[C@@H](c2ccnc3ccc(F)cc32)CC1 (single isomer, unassigned) [Example 15-4, 4-(4-(1-(6-chloro-1H-benzo[d]imidazol-2-yl)propyl)cyclohexyl)-6-fluoroquinoline] |
| 54.1 |  | CC(c1nc2ccc(Cl)cc2[nH]1)C1CCC(c2ccnc3ccccc23)CC1 (single isomer, unassigned) [Example 16-1, (±)-4-(4-(1-(6-chloro-1H-benzo[d]imidazol-2-yl)ethyl)cyclohexyl)quinoline] |
| 4.5 | 5.7 | CC(c1nc2ccc(Cl)cc2[nH]1)C1CCC(c2ccnc3ccccc23)CC1 (single isomer, unassigned) [Example 16-2, (±)-4-(4-(1-(6-chloro-1H-benzo[d]imidazol-2-yl)ethyl)cyclohexyl)quinoline] |

Source: US11337970B2, “Inhibitors of indoleamine 2,3-dioxygenase and methods of their use” (BRISTOL-MYERS SQUIBB COMPANY, priority 2016, dated 2022)
